Assays:
[1] = tested on: thoracic aorta rings; assay: "Potassic canal opener" type activity: in vitro relaxing power on thoracic aorta rings contracted by KCl 20 mM; type: cell-based
Experimental: Measurement of the "potassic canal opener" type activity of the 4-(5-methyl-2,4-dioxo-5-trifluoromethyl)-oxazolidin-3-yl)-2-trifluoromethylbenzonitrile by measuring in vitro the relaxing power of the molecules of thoracic aorta rings.
The experiments are carried out according to the Newgreen et al (Br. J. Pharmacol., 100, 1990, p. 605-613), Bray et al (Arch. Pharmacol., 344, 1991, p. 351-359) and Wickerden et al (Br. J. Pharmacol., 103, 1991, 1148-1152) methods.
After placing the tissues in the isolated organ tanks, they (smooth aortic muscles) are subjected to an initial tension of 2 g.
After a period of equilibration, the tissues are exposed to a potassium chloride solution (KCl, at 20 mM) in order to obtain a sustained contractile response. After stabilization of this contractile response, the relaxing activity (of the potassic canal opener type) of the molecules to be tested is evaluated in response doses.
During the experiment, two reference molecules are used: cromakalim and Minoxidil.
Results expressed in % of inhibition of the contraction provoked by the KCl at 20 mM.

[2] = target: T1, androgen receiver (Rattus norvegicus, UniProt P15207); assay: Affinity for the androgen receiver (Schilling and Liao method), inhibition of testosterone fixation; type: binding
T1 sequence (P15207 1-902): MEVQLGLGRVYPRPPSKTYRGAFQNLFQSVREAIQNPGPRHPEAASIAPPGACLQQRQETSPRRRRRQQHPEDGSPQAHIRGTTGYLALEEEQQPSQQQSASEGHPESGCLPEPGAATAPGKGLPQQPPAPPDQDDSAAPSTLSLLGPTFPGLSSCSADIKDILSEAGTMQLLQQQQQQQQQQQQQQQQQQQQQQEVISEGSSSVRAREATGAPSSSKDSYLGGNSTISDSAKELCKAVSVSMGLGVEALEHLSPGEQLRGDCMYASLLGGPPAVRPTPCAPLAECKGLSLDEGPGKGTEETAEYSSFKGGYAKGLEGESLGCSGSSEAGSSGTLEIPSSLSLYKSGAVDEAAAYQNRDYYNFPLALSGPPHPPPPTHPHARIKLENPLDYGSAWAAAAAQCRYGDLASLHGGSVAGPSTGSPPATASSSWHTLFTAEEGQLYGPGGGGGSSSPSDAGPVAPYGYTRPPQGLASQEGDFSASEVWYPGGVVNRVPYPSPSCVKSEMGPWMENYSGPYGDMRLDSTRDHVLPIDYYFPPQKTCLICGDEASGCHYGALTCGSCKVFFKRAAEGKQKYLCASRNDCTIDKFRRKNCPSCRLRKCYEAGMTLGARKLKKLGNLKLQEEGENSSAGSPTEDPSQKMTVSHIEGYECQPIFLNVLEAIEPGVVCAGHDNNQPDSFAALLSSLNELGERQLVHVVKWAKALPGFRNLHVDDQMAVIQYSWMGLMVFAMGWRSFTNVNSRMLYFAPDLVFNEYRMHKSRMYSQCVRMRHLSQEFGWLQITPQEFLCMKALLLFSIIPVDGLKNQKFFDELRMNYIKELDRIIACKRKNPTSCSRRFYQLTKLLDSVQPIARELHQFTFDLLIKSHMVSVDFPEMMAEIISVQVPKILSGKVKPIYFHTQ
Experimental: Measuring the affinity of the 4-(5-methyl-2,4-dioxo-5-trifluoromethyl)-oxazolidin-3-yp)-2-trifluoromethylbenzonitrile for the androgen receiver.
These measurements of receiving affinity for the androgen receiver are executed according to the Schilling and Liao method, described in "The Prostate", 1984, 5.p. 581-588.
The compound is tested at several concentrations. During the experiment, the reference molecule(mibolerone) is tested at the same time at 8 concentrations in order to validate the experiment.
The results are expressed in % of inhibition of the fixation of the testosterone on its receiver. The internal reference (mibolerone) inhibits up to 50% of this fixation at a concentration of 4.3 nM.

Row | SMILES | % of inhibition of the contraction provoked by the KCl at 20 mM ([1]; compound at 0.1 μM) [%] | % of inhibition of the contraction provoked by the KCl at 20 mM ([1]; compound at 1 μM) [%] | % of inhibition of the contraction provoked by the KCl at 20 mM ([1]; compound at 10 μM) [%] | activity profile (potassic canal opener / anti-androgen) ([1]; conclusion drawn from the results of Examples 2 and 3) | inhibition at 0.1 µM ([2]; compound at 0.1 μM, read-out: % of inhibition of the fixation of the testosterone on its receiver) [%] | inhibition at 1 µM ([2]; compound at 1 μM, read-out: % of inhibition of the fixation of the testosterone on its receiver) [%] | inhibition at 10 µM ([2]; compound at 10 μM, read-out: % of inhibition of the fixation of the testosterone on its receiver) [%] | IC50 [2] [nM]
1 | CC1(C(F)(F)F)OC(=O)N(c2ccc(C#N)c(C(F)(F)F)c2)C1=O (centres unmarked) [4-(5-methyl-2,4-dioxo-5-trifluoromethyl)-oxazolidin-3-yl)-2-trifluoromethylbenzonitrile] | 12 | 69 | 95 | mixed activity, with a preferred activity for the K* Agonist facet | 2 | 17 | 56 | 
2 | CC1(C)Oc2ccc(C#N)cc2C(N2CCCC2=O)C1O (centres unmarked) [Cromakalim, cromakalim] | 46 | 86 | 100 |  |  |  |  | 
3 | Nc1cc(N2CCCCC2)nc(N)[n+]1[O-] [Minoxidil, 3-oxide pyrimidine 6-piperidino 2,4-diamino] | 25 | 65 | 95 |  |  |  |  | 
4 | C[C@@H]1CC2=CC(=O)CC[C@@H]2[C@H]2CC[C@@]3(C)[C@@H](CC[C@]3(C)O)[C@@H]21 [mibolerone] |  |  |  |  |  |  |  | 4.3

Source: patent US6057351A, “Compounds of the 3-aryl 2,4 dioxo oxazolidine family and use thereof in cosmetic and pharmaceuticals” (Societe L'Oreal S.A., priority 1996, dated 2000)
